Data published in patent USRE50917E1, “Formulations of (s)-3-(4-((4-(morpholinomethyl)benzyl)oxy)-1-oxoisoindolin-2-yl)piperidine-2,6-dione” (Celgene Corporation, priority 2013, dated 2026).
Entries after “also recorded” stand apart in the source; their conditions may differ.

Assays:
[1] = test system: TNF-α; settings: LPS-stimulated hPBMC and human whole blood; background statement; cited from earlier work
[2] = test system: IL-10; settings: LPS-stimulated hPBMC and human whole blood; background statement; cited from earlier work
[3] = test system: IL-1β; settings: LPS-stimulated hPBMC and human whole blood; background statement; cited from earlier work
[4] = Chemical stability of Compound A towards hydrolysis; type: physicochemical
[5] = test system: T cells; settings: background statement; cited from earlier work

O=C1CC[C@H](N2Cc3c(OCc4ccc(CN5CCOCC5)cc4)cccc3C2=O)C(=O)N1 [Compound A, (S)-3-(4-((4-(morpholinomethyl)benzyl)oxy)-1-oxoisoindolin-2-yl)piperidine-2,6-dione]
Degradation of TNF-α mRNA, in words [1]: enhances
Inhibition of TNF-α, in words [1]: markedly inhibits
Effect on IL-10, in words [2]: stimulates
Inhibition of IL-1β, in words [3]: potently inhibits
Susceptibility to hydrolysis, in words [4]: prone to hydrolysis; also recorded: easily degraded by hydrolysis
Co-stimulation of T cells, in words [5]: potent co-stimulator
